Converted amounts (≈) assume the structure as drawn.
What was measured:
[1] = test system: Ceratobasidium cornigerum; assay: Antimicrobial activity against Ceratobasidium cornigerum assessed as microbial growth inhibition; format: functional
Edwardsiella tarda = assay: Antimicrobial activity against Edwardsiella tarda assessed as microbial growth inhibition; format: functional

MIC [1]: 0.5 µg/mL (≈ 0.925 µM)
MIC (Edwardsiella tarda): 0.25 µg/mL (≈ 0.462 µM)
Structure (SMILES): C=C(C)[C@H]1[C@H](OC(C)=O)C[C@H](C)[C@@]12CC=C(C)[C@@H](OC(=O)CCCCCCC/C=C\C/C=C\CCCCC)C2

Reference: ChEMBL document CHEMBL5104094, “Chemistry, biosynthesis and biological activity of terpenoids and meroterpenoids in bacteria and fungi isolated from different marine habitats” (Eur J Med Chem, 2021)
